Activity calls are given as the source filed them. The rule behind the calls is not given here. *1 amine or outer side, *2 acyl side, *3 side chain or, on linkers, in order; H or OH if unused. Bridges are numbered along the chain shown (N, C = ends). [ ]: non-standard residue; d: D form. X1 = CCCCCCCCCCCCCCCC(=O)NCCCCCCNC(=O)C(CCCCNC(=O)CCN1C(=O)CC([*:1])C1=O)NC(=O)CCN1C(=O)CC([*:2])C1=O; AEEA = NCCOCCOCC(=O)O; Aib = CC(C)(N)C(=O)O
Assays:
[1] = Hepatotoxicity in ICR mouse assessed as effect on alanine aminotransferase level at 1000 nmol/kg, sc BID for 14 days; type: toxicity, organism-based; conditions: in vivo, 336 h, time 14 day
[2] = Toxicity in Sprague-Dawley rat assessed as induction of kaolin intake at 25 nmol/kg, sc BID for 10 days by Kaolin consumption test; type: organism-based; conditions: in vivo, 240 h, time 10 day
[3] = Tmax in ICR mouse at 50 nmol/kg, sc up to 24 hrs by LC-MS/MS analysis; type: ADME, organism-based; conditions: in vivo
[4] = system: Mus musculus; assay: Improvement in fasted blood glucose level in db/db mouse at 25 nmol/kg, sc BID for 6 weeks followed by another 6 week saline treatment relative to control; type: functional, organism-based
[5] = system: Mus musculus; assay: Improvement in insulin content in db/db mouse at 25 nmol/kg, sc BID for 21 days relative to control; type: functional, organism-based; conditions: time 21.0 day
[6] = system: Mus musculus; assay: Reduction in fasting blood glucose in C57BL/6 mouse model of high-fat diet induced obesity at 25 nmol/kg, sc BID for 21 days relative to control; type: functional, organism-based; conditions: time 21.0 day
[7] = target: T1, Cholecystokinin receptor type A (Homo sapiens, UniProt P32238); assay: Agonist activity at human CCK-1R expressed in HEK293 cells assessed as stimulation of ERK phosphorylation incubated for 5 mins; type: cell-based
T1 sequence (P32238 whole entry): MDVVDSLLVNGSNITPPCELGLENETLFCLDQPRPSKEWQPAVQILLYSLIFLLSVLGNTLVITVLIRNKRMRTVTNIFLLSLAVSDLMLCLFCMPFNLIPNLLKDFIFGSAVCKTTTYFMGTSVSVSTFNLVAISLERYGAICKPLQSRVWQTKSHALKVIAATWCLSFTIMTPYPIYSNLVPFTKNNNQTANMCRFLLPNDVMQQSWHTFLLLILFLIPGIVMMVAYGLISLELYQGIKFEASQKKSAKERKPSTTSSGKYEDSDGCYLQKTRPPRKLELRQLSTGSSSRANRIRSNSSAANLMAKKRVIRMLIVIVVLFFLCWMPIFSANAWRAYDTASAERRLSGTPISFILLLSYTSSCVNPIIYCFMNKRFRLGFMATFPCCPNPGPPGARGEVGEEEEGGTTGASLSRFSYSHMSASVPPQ

[8] = system: Rattus norvegicus; assay: Reduction of food intake in Sprague-Dawley rat at 25 nmol/kg, ip after 24 hrs; type: functional, organism-based
[9] = Renal toxicity in ICR mouse assessed as effect on blood urea nitrogen level at 1000 nmol/kg, sc BID for 14 days; type: organism-based; conditions: in vivo, 336 h, time 14 day
[10] = system: Mus musculus; assay: Reduction in cumulated food intake in db/db mouse at 25 nmol/kg, sc BID for 21 days relative to control; type: functional, organism-based; conditions: time 21.0 day
[11] = system: INS1; assay: Toxicity in rat INS1 cells assessed as reduction cell viability up to 1000 nM after 24 hrs by MTT assay; type: cell-based; conditions: ins1, 24 h
[12] = system: Rattus norvegicus; assay: Reduction of food intake in Sprague-Dawley rat at 25 nmol/kg, sc BID for 12 days; type: functional, organism-based; conditions: time 12.0 day
[13] = Hepatotoxicity in ICR mouse assessed as effect on aspartate aminotransferase level at 1000 nmol/kg, sc BID for 14 days; type: toxicity, organism-based; conditions: in vivo, 336 h, time 14 day
[14] = system: Mus musculus; assay: Reduction in body fat content in C57BL/6 mouse model of high-fat diet induced obesity at 25 nmol/kg, sc BID for 21 days relative to control; type: functional; design: scale not given: the % may be the effect or the level left; conditions: time 21 day
[15] = system: Mus musculus; assay: Hypoglycemic activity in db/db mouse assessed as decrease in glucose excursion at 25 nmol/kg, ip dosed 30 mins before test and measured up to 120 mins by OGTT method; type: functional, organism-based; conditions: time 150.0 min
[16] = Toxicity in Sprague-Dawley rat assessed as induction of kaolin intake at 25 nmol/kg, ip after 24 hrs by Kaolin consumption test; type: organism-based; conditions: in vivo
[17] = target: Glucagon-like peptide 1 receptor (Homo sapiens, UniProt P43220); assay: Agonist activity at human GLP-1R expressed in HEK293 cells assessed as stimulation of cAMP accumulation incubated for 20 mins; type: functional, cell-based
Glucagon-like peptide 1 receptor, sequence (P43220 whole entry): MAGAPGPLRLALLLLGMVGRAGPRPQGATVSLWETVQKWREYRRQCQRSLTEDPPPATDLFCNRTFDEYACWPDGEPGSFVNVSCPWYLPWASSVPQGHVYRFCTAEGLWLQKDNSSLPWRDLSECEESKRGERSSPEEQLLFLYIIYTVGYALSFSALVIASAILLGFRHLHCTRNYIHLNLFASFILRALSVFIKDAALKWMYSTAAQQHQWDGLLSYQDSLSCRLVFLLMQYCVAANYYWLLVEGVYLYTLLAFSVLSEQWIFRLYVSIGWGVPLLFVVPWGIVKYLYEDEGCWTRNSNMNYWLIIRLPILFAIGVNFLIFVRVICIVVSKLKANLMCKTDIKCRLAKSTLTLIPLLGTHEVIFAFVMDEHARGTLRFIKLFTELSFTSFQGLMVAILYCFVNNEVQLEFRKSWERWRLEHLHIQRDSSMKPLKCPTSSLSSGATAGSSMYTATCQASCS

[18] = system: Mus musculus; assay: Reduction in serum cholesterol in C57BL/6 mouse model of high-fat diet induced obesity at 25 nmol/kg, sc BID for 21 days relative to control; type: functional, organism-based; conditions: time 21.0 day
[19] = system: Mus musculus; assay: Hypoglycemic activity in non-fasted db/db mouse assessed as improvement in glucose tolerance at dosed intraperitoneally 30 mins before test and measured up to 120 mins by OGTT method; type: functional, organism-based; conditions: time 150.0 min
[20] = Renal toxicity in ICR mouse assessed as effect on serum creatinine level at 1000 nmol/kg, sc BID for 14 days; type: organism-based; conditions: in vivo, 336 h, time 14 day
[21] = system: Mus musculus; assay: Improvement in HbA1c level in db/db mouse at 25 nmol/kg, sc BID for 21 days relative to control; type: functional, organism-based; conditions: time 21.0 day
[22] = system: Mus musculus; assay: Improvement in fasted blood glucose level in db/db mouse at 25 nmol/kg, sc BID for 21 days relative to control; type: functional, organism-based; conditions: time 21.0 day
[23] = system: INS1; assay: Protection against glucotoxicity in rat INS1 cells assessed as recovery of cell viability after 24 hrs in presence of glucotoxicity media by MTT assay; type: functional, cell-based
[24] = AUC (0 to infinity) in ICR mouse at 50 nmol/kg, sc up to 24 hrs by LC-MS/MS analysis; type: ADME, organism-based; design: route subcutaneous, dose 50 nmol/kg, time <=24; conditions: in vivo
[25] = system: Mus musculus; assay: Improvement in pancreatic beta cell area level in db/db mouse at 25 nmol/kg, sc BID for 21 days relative to control; type: functional, organism-based; conditions: time 21.0 day
[26] = system: Mus musculus; assay: […] activity in non-fasted db/db mouse assessed as improvement in glucose tolerance at dosed intraperitoneally 30 mins before test and measured up to 120 mins by OGTT method; type: functional, organism-based; conditions: time 150.0 min
[27] = system: Mus musculus; assay: Improvement in pancreatic islet area and number level in db/db mouse at 25 nmol/kg, sc BID for 21 days relative to control; type: functional, organism-based; conditions: time 21.0 day
[28] = system: Mus musculus; assay: Inhibition of solid-phase gastric emptying in fasted ICR mouse at 25 nmol/kg, ip measured after 4 hrs by LC-MS/MS analysis; type: functional, organism-based
[29] = system: Mus musculus; assay: Inhibition of pancreatic non-beta cell area (alpha-cell) level in db/db mouse at 25 nmol/kg, sc BID for 21 days relative to control; type: functional, organism-based; conditions: time 21.0 day
[30] = system: Mus musculus; assay: Improvement in glucose tolerance in C57BL/6 mouse model of high-fat diet induced obesity at 25 nmol/kg, sc BID for 21 days relative to control; type: functional, organism-based; conditions: time 21.0 day
[31] = target: T2, Gastrin/cholecystokinin type B receptor (Homo sapiens, UniProt P32239); assay: Agonist activity at human CCK-2R expressed in HEK293 cells assessed as stimulation of ERK phosphorylation incubated for 5 mins; type: cell-based
T2 sequence (P32239 whole entry): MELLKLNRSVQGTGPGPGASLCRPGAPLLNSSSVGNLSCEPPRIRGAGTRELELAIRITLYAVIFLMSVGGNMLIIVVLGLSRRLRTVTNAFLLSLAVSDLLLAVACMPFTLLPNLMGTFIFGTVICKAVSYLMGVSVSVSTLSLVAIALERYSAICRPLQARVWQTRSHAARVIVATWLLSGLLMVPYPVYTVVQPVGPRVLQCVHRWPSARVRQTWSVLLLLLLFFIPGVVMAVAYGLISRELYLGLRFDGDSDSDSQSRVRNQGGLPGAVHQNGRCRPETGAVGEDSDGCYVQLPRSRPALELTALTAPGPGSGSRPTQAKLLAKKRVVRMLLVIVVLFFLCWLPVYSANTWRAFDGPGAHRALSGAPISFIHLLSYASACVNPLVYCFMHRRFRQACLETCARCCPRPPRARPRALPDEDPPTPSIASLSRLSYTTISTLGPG

[32] = system: Mus musculus; assay: Hypoglycemic activity in db/db mouse assessed as improvement in glucose tolerance at 25 nmol/kg, ip dosed 30 mins before test and measured up to 120 mins by OGTT method; type: functional, organism-based; conditions: time 150.0 min
[33] = system: Mus musculus; assay: Reduction in Hb1Ac level in db/db mouse at 25 nmol/kg, sc BID for 6 weeks followed by another 6 week saline treatment relative to control; type: functional, organism-based
[34] = system: Mus musculus; assay: Insulinotropic activity in db/db mouse assessed as improvement in plasma insulin level at 25 nmol/kg, ip dosed 30 mins before test and measured up to 60 mins by OGTT method; type: functional, organism-based; conditions: time 90.0 min
[35] = system: Mus musculus; assay: Reduction in serum triglyceride in C57BL/6 mouse model of high-fat diet induced obesity at 25 nmol/kg, sc BID for 21 days relative to control; type: functional, organism-based; conditions: time 21.0 day
[36] = system: Mus musculus; assay: Reduction in body weight gain in db/db mouse at 25 nmol/kg, sc BID for 21 days relative to control; type: functional, organism-based; conditions: time 21.0 day
[37] = Half life in ICR mouse at 50 nmol/kg, sc up to 24 hrs by LC-MS/MS analysis; type: ADME, organism-based; conditions: in vivo
[38] = system: Mus musculus; assay: Inhibition of liquid-phase gastric emptying in 6 hrs fasted ICR mouse assessed as reduction in blood acetaminophen concentration at 25 nmol/kg, ip dosed 30 mins before acetaminophen dosing by LC-MS/MS analysis; type: functional, organism-based
[39] = system: Mus musculus; assay: Improvement in glucose tolerance in db/db mouse at 25 nmol/kg, sc BID for 6 weeks followed by another 6 week saline treatment relative to control; type: functional, organism-based
[40] = system: Mus musculus; assay: Reduction in body weight in C57BL/6 mouse model of high-fat diet induced obesity at 25 nmol/kg, sc BID for 21 days relative to control; type: functional; design: scale not given: the % may be the effect or the level left; conditions: time 21 day

H-H[Aib]EGTYTNDVTEYCEEEAAKCFIEWLIKGKPSSGAPPPS[AEEA][AEEA]YGWLDF-NH2 (linker 14-21 via X1)
Activity [1]: Non-Toxic | Activity [2]: Non-Toxic | Tmax [3]: 4 h | Activity [4]: Active | Activity [5]: Active | Activity [6]: Active | EC50 [7]: > 1000 nM | Activity [8]: Active | Activity [9]: Non-Toxic | Activity [10]: Active | Activity [11]: Non-Toxic | Activity [12]: Active | Activity [13]: Non-Toxic | Activity [14]: 32.2% | Activity [15]: Active | Activity [16]: Non-Toxic | EC50 [17]: 0.022 nM | Activity [18]: Active | Activity [19]: Dose-dependent effect | Activity [20]: Non-Toxic | Activity [21]: Active | Activity [22]: Active | Activity [23]: Dose-dependent effect | AUC(0-inf) [24]: 15900 ng·h/mL | Activity [25]: Active | Activity [26]: Dose-dependent effect | Activity [27]: Active | inhibition [28]: Active | inhibition [29]: Active | Activity [30]: Active | EC50 [31]: 7.3 nM | Activity [32]: Active | Activity [33]: Active | Activity [34]: Active | Activity [35]: Active | Activity [36]: Active | half-life [37]: 4.4 h | inhibition [38]: Active | Activity [39]: Active | Activity [40]: 26.3%

— ChEMBL document CHEMBL4699602, “Stapled and Xenopus Glucagon-Like Peptide 1 (GLP-1)-Based Dual GLP-1/Gastrin Receptor Agonists with Improved Metabolic Benefits in Rodent Models of Obesity and Diabetes” (J Med Chem, 2020)
